A word on the IC50: it is the point on the concentration scale where inhibition reaches its midpoint.

Each structure is given as a SMILES string.

The target of this assay is T1, Human HPK1, catalytic domain (Homo sapiens, UniProt Q92918).
T1 sequence (Q92918 1-346): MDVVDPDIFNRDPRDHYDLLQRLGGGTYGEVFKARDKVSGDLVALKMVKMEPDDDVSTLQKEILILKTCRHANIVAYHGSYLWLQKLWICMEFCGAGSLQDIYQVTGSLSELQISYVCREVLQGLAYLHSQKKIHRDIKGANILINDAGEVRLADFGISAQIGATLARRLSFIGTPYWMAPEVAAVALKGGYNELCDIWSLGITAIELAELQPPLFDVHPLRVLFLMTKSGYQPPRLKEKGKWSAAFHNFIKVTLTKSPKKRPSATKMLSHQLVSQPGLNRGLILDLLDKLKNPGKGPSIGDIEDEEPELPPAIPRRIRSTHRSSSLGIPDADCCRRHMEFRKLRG
Nature of the assay: HPK1-SLP76 TR-FRET Assay. Type of assay: biochemical. The conditions noted are these: 75 pM HPK1, ATP 10 uM, SLP76 10 nM, 30 min pre-incubation, 60 min reaction.
For the compound `COc1cc2c(cc1Nc1ncc3ccc(-c4ccc(C#N)cc4C)cc3n1)CNCC2` [Compound 1-33, 4-{2-[(6-methoxy-1,2,3,4-tetrahydroisoquinolin-7-yl)amino]quinazolin-7-yl}-3-methylbenzonitrile], inhibition was half-maximal at 136 nM (IC50).
To `COc1cc2c(cc1Nc1ncc3ccc(-c4cnn(C)c4)cc3n1)CNCC2` [Compound 1-34, N-(6-methoxy-1,2,3,4-tetrahydroisoquinolin-7-yl)-7-(1-methyl-1H-pyrazol-4-yl)quinazolin-2-amine] belongs 1.49 nM; to `COc1cc2c(cc1Nc1ncc3ccc(-c4cnn5c4CCC5)cc3n1)CNCC2` [Compound 1-35, 7-(5,6-dihydro-4H-pyrrolo[1,2-b]pyrazol-3-yl)-N-(6-methoxy-1,2,3,4-tetrahydroisoquinolin-7-yl)quinazolin-2-amine], 0.689 nM; to `COc1cc2c(cc1Nc1ncc3ccc(-c4cncc(C#N)c4)cc3n1)CNCC2` [Compound 1-36, 5-{2-[(6-methoxy-1,2,3,4-tetrahydroisoquinolin-7-yl)amino]quinazolin-7-yl}pyridine-3-carbonitrile], 182 nM.
To `COc1cc2c(cc1Nc1ncc3ccc(-c4cncc(NS(C)(=O)=O)c4)cc3n1)CNCC2` [Compound 1-37, N-(5-{2-[(6-methoxy-1,2,3,4-tetrahydroisoquinolin-7-yl)amino]quinazolin-7-yl}pyridin-3-yl)methanesulfonamide] belongs 27.9 nM; to `COc1cc2c(cc1Nc1ncc3ccc(-c4cnccc4Cl)cc3n1)CNCC2` [Compound 1-38, 7-(4-chloropyridin-3-yl)-N-(6-methoxy-1,2,3,4-tetrahydroisoquinolin-7-yl)quinazolin-2-amine], 17.9 nM; to `COc1ccc(-c2ccc3cnc(Nc4cc5c(cc4OC)CCNC5)nc3c2)cn1` [Compound 1-39, 7-(6-methoxypyridin-3-yl)-N-(6-methoxy-1,2,3,4-tetrahydroisoquinolin-7-yl)quinazolin-2-amine], 34.8 nM.
The compound `COc1cc2c(cc1Nc1ncc3ccc(-c4cccnc4)cc3n1)CNCC2` [Compound 1-40, N-(6-methoxy-1,2,3,4-tetrahydroisoquinolin-7-yl)-7-(pyridin-3-yl)quinazolin-2-amine] gave a half-inhibitory concentration (IC50) of 8.94 nM.
Under `COc1cc2c(cc1Nc1ncc3ccc(-c4cncc(C)c4)cc3n1)CNCC2` [Compound 1-41, N-(6-methoxy-1,2,3,4-tetrahydroisoquinolin-7-yl)-7-(5-methylpyridin-3-yl)quinazolin-2-amine] stands 9.67 nM.
Consider `COc1cc2c(cc1Nc1ncc3ccc(-c4cncc(N5CCOCC5)c4)cc3n1)CNCC2` [Compound 1-42, N-(6-methoxy-1,2,3,4-tetrahydroisoquinolin-7-yl)-7-[5-(morpholin-4-yl)pyridin-3-yl]quinazolin-2-amine], for which half-maximal inhibition (IC50) required 38.5 nM.
Under `COc1cc2c(cc1Nc1ncc3ccc(-c4cncc(S(C)(=O)=O)c4)cc3n1)CNCC2` [Compound 1-43, N-(6-methoxy-1,2,3,4-tetrahydroisoquinolin-7-yl)-7-[5-(methylsulfonyl)pyridin-3-yl]quinazolin-2-amine] stands 82.8 nM.
To `COc1cncc(-c2ccc3cnc(Nc4cc5c(cc4OC)CCNC5)nc3c2)c1` [Compound 1-44, 7-(5-methoxypyridin-3-yl)-N-(6-methoxy-1,2,3,4-tetrahydroisoquinolin-7-yl)quinazolin-2-amine] belongs 9.45 nM; to `COc1cc2c(cc1Nc1ncc3ccc(-c4cncc5[nH]ccc45)cc3n1)CNCC2` [Compound 1-45, N-(6-methoxy-1,2,3,4-tetrahydroisoquinolin-7-yl)-7-(1H-pyrrolo[2,3-c]pyridin-4-yl)quinazolin-2-amine], 0.885 nM; to `COc1cc2c(cc1Nc1ncc3ccc(-c4ccncc4)cc3n1)CNCC2` [Compound 1-46, N-(6-methoxy-1,2,3,4-tetrahydroisoquinolin-7-yl)-7-(pyridin-4-yl)quinazolin-2-amine], 59.4 nM.
Under `COc1cc2c(cc1Nc1ncc3ccc(-c4cncc(C(=O)N5CCOCC5)c4)cc3n1)CNCC2` [Compound 1-47, (5-{2-[(6-methoxy-1,2,3,4-tetrahydroisoquinolin-7-yl)amino]quinazolin-7-yl}pyridin-3-yl)(morpholin-4-yl)methanone] stands 273 nM.
`COc1cc2c(cc1Nc1ncc3ccc(-c4ccc(NCCN5CCOCC5)nc4)cc3n1)CNCC2` [Compound 1-48, N-(6-methoxy-1,2,3,4-tetrahydroisoquinolin-7-yl)-7-(6-{[2-(morpholin-4-yl)ethyl]amino}pyridin-3-yl)quinazolin-2-amine] displayed an IC50 of 387 nM.
With `COc1cc2c(cc1Nc1ncc3ccc(-c4cncc(CN)c4)cc3n1)CNCC2` [Compound 1-49, 7-[5-(aminomethyl)pyridin-3-yl]-N-(6-methoxy-1,2,3,4-tetrahydroisoquinolin-7-yl)quinazolin-2-amine], the IC50 is 3.25 nM.
Under `COc1cc2c(cc1Nc1ncc3ccc(-c4cncc(N5CCNCC5)c4)cc3n1)CNCC2` [Compound 1-50, N-(6-methoxy-1,2,3,4-tetrahydroisoquinolin-7-yl)-7-[5-(piperazin-1-yl)pyridin-3-yl]quinazolin-2-amine] stands 5.9 nM; under `COc1cc2c(cc1Nc1ncc3ccc(-c4cncc(NS(=O)(=O)C(C)C)c4)cc3n1)CNCC2` [Compound 1-51, N-(5-{2-[(6-methoxy-1,2,3,4-tetrahydroisoquinolin-7-yl)amino]quinazolin-7-yl}pyridin-3-yl)propane-2-sulfonamide], 48 nM; under `CCC(=O)Nc1cncc(-c2ccc3cnc(Nc4cc5c(cc4OC)CCNC5)nc3c2)c1` [Compound 1-52, N-(5-{2-[(6-methoxy-1,2,3,4-tetrahydroisoquinolin-7-yl)amino]quinazolin-7-yl}pyridin-3-yl)propanamide], 11 nM.
The compound `COc1cc2c(cc1Nc1ncc3ccc(-c4cncc(CO)c4)cc3n1)CNCC2` [Compound 1-53, (5-{2-[(6-methoxy-1,2,3,4-tetrahydroisoquinolin-7-yl)amino]quinazolin-7-yl}pyridin-3-yl)methanol] showed an IC50 of 5.6 nM.
To `COc1cc2c(cc1Nc1ncc3ccc(-c4cncc(N5CCN(C)CC5)c4)cc3n1)CNCC2` [Compound 1-54, N-(6-methoxy-1,2,3,4-tetrahydroisoquinolin-7-yl)-7-[5-(4-methylpiperazin-1-yl)pyridin-3-yl]quinazolin-2-amine] belongs 18.9 nM; to `COc1cc2c(cc1Nc1ncc3ccc(-c4cccc(CC#N)c4)cc3n1)CNCC2` [Compound 1-55, (3-{2-[(6-methoxy-1,2,3,4-tetrahydroisoquinolin-7-yl)amino]quinazolin-7-yl}phenyl)acetonitrile], 52.8 nM; to `COc1cc2c(cc1Nc1ncc3ccc(-c4cccc(-c5cn[nH]c5)c4)cc3n1)CNCC2` [Compound 1-56, N-(6-methoxy-1,2,3,4-tetrahydroisoquinolin-7-yl)-7-[3-(1H-pyrazol-4-yl)phenyl]quinazolin-2-amine], 204 nM.
To `COc1cc2c(cc1Nc1ncc3ccc(-c4ccc(CN(C)C)cc4)cc3n1)CNCC2` [Compound 1-57, 7-{4-[(dimethylamino)methyl]phe-nyl}-N-(6-methoxy-1,2,3,4-tetrahydroisoquinolin-7-yl)quinazolin-2-amine] belongs 79.2 nM; to `COc1cc2c(cc1Nc1ncc3ccc(-c4cccc(N)c4)cc3n1)CNCC2` [Compound 1-58, 7-(3-aminophenyl)-N-(6-methoxy-1,2,3,4-tetrahydroisoquinolin-7-yl)quinazolin-2-amine], 76.2 nM; to `COc1cc2c(cc1Nc1ncc3ccc(-c4cccc(O)c4)cc3n1)CNCC2` [Compound 1-59, 3-{2-[(6-methoxy-1,2,3,4-tetrahydroisoquinolin-7-yl)amino]quinazolin-7-yl}phenol], 36.2 nM.
Under `COc1cc2c(cc1Nc1ncc3ccc(-c4cccc(CO)c4)cc3n1)CNCC2` [Compound 1-60, (3-{2-[(6-methoxy-1,2,3,4-tetrahydroisoquinolin-7-yl)amino]quinazolin-7-yl}phenyl)methanol] stands 20.5 nM; under `COc1cc2c(cc1Nc1ncc3ccc(-c4cccc(CN)c4)cc3n1)CNCC2` [Compound 1-61, 7-[3-(aminomethyl)phenyl]-N-(6-methoxy-1,2,3,4-tetrahydroisoquinolin-7-yl)quinazolin-2-amine], 13.9 nM.
Regarding `COc1cc2c(cc1Nc1ncc3ccc(-c4cc(N)cc(C#N)c4)cc3n1)CNCC2` [Compound 1-62, 3-amino-5-{2-[(6-methoxy-1,2,3,4-tetrahydroisoquinolin-7-yl)amino]quinazolin-7-yl}benzonitrile], the midpoint of inhibition, the IC50, lay at 114 nM.
Under `COc1cc2c(cc1Nc1ncc3ccc(-c4cc(C#N)ccc4OC)cc3n1)CNCC2` [Compound 1-63, 4-methoxy-3-{2-[(6-methoxy-1,2,3,4-tetrahydroisoquinolin-7-yl)amino]quinazolin-7-yl}benzonitrile] stands 45.7 nM; under `COc1cc2c(cc1Nc1ncc3ccc(-c4ccc(CC#N)cc4)cc3n1)CNCC2` [Compound 1-64, (4-{2-[(6-methoxy-1,2,3,4-tetrahydroisoquinolin-7-yl)amino]quinazolin-7-yl}phenyl)acetonitrile], 82 nM; under `COc1cc2c(cc1Nc1ncc3ccc(-c4cccc(C#N)c4)cc3n1)CNCC2` [Compound 1-65, 3-{2-[(6-methoxy-1,2,3,4-tetrahydroisoquinolin-7-yl)amino]quinazolin-7-yl}benzonitrile], 120 nM.

The values above are taken from patent publication US20230399341A1, “7-PHENYL SUBSTITUTED 2-AMINOQUINAZOLINE INHIBITORS OF HPK1” (MERCK SHARP & DOHME LLC, priority 2020, published 2023).
